Results from article PMC4457528, “Identification of Novel Small Molecule Inhibitors of Oncogenic RET Kinase” (PLoS ONE, 2015).
Read-outs that look alike come from different tables or passages of the source.

Legend:
Experiment in all cases: KinomeScan kinase panel, single concentration 10 µM
Type in all cases: binding
KinomeScan kinase panel [1] = molecular target: T1, KinomeScan kinase panel (Homo sapiens, UniProt P00533, DEL752-759)
T1 construct: purchased DiscoveRx (KinomeScan)

KinomeScan kinase panel [2] = molecular target: T2, KinomeScan kinase panel (Homo sapiens, UniProt P27037); conditions: ACVR2A, 10 µM; read-out: score (%)
T2 construct: purchased DiscoveRx (KinomeScan)

KinomeScan kinase panel [3] = molecular target: T3, KinomeScan kinase panel (Homo sapiens, UniProt P50750); conditions: CDK9, 10 µM; read-out: score (%)
T3 construct: purchased DiscoveRx (KinomeScan)

KinomeScan kinase panel [4] = molecular target: T4, KinomeScan kinase panel (Homo sapiens, UniProt Q13043); conditions: MST1, 10 µM
T4 construct: purchased DiscoveRx (KinomeScan)
T4 sequence (Q13043 1-487): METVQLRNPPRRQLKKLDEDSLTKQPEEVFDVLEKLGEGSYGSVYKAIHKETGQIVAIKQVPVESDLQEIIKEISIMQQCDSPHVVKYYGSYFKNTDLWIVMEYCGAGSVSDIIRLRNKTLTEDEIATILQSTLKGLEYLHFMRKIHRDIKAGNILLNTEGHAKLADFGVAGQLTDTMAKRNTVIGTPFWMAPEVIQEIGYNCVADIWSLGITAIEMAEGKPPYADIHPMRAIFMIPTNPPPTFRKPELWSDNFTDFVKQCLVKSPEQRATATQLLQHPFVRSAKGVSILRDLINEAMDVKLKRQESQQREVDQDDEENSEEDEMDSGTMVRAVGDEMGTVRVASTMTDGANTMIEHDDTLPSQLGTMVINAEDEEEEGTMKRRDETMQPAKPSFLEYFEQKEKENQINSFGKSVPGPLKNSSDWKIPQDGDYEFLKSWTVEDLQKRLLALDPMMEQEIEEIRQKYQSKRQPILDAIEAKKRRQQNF

KinomeScan kinase panel [5] = molecular target: T5, KinomeScan kinase panel (Homo sapiens, UniProt Q8TD19); conditions: NEK9, 10 µM; read-out: score (%)
T5 construct: purchased DiscoveRx (KinomeScan)
T5 sequence (Q8TD19 1-979): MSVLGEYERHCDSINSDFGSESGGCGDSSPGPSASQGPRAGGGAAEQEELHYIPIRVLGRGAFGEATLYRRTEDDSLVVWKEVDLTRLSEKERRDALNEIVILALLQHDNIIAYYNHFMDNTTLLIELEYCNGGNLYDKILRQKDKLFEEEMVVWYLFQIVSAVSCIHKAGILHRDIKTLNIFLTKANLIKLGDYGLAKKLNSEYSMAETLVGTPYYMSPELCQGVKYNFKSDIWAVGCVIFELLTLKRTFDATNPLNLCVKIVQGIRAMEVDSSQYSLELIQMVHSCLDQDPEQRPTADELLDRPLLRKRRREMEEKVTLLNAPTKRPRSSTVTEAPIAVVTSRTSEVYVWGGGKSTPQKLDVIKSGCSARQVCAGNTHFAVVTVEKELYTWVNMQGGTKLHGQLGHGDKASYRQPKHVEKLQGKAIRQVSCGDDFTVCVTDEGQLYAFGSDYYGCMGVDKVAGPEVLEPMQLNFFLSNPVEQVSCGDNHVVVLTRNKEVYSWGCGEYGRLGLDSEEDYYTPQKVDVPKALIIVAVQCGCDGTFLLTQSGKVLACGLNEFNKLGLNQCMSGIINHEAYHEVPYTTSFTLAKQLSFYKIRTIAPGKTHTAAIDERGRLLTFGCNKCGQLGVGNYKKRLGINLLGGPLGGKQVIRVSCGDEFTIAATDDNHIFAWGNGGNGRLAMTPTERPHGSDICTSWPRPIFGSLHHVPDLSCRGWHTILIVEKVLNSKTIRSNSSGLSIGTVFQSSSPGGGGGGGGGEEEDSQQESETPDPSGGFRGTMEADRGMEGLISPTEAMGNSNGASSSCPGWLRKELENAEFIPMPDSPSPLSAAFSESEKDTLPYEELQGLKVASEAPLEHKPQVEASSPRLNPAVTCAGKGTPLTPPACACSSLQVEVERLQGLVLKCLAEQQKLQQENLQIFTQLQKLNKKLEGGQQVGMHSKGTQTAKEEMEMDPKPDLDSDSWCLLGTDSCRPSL

KinomeScan kinase panel [6] = molecular target: T6, KinomeScan kinase panel (Homo sapiens, UniProt Q9H2K8); conditions: read-out: score (%)
T6 construct: purchased DiscoveRx (KinomeScan)
T6 sequence (Q9H2K8 1-898): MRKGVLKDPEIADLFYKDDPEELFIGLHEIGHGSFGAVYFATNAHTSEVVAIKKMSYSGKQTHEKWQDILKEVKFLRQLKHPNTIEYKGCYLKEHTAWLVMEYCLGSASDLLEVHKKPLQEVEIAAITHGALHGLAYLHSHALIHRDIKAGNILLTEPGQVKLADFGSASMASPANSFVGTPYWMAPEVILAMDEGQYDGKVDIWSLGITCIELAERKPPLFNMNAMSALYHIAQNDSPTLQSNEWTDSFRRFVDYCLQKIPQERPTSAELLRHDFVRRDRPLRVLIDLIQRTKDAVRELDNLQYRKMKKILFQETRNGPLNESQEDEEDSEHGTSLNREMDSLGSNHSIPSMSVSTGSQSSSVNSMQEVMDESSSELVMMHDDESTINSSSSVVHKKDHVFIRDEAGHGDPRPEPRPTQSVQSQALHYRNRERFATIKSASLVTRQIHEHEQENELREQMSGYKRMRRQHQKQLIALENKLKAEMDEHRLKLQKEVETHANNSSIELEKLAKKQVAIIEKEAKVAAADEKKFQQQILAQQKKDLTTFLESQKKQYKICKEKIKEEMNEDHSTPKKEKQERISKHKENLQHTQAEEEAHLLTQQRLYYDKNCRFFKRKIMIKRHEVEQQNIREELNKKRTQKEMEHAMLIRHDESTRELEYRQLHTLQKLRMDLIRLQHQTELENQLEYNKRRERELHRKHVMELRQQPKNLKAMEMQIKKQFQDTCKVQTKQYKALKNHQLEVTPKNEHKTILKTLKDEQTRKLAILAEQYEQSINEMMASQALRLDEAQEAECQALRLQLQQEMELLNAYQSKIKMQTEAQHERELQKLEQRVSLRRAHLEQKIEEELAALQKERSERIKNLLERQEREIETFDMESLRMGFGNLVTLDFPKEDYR

T2 sequence (P27037 20-513): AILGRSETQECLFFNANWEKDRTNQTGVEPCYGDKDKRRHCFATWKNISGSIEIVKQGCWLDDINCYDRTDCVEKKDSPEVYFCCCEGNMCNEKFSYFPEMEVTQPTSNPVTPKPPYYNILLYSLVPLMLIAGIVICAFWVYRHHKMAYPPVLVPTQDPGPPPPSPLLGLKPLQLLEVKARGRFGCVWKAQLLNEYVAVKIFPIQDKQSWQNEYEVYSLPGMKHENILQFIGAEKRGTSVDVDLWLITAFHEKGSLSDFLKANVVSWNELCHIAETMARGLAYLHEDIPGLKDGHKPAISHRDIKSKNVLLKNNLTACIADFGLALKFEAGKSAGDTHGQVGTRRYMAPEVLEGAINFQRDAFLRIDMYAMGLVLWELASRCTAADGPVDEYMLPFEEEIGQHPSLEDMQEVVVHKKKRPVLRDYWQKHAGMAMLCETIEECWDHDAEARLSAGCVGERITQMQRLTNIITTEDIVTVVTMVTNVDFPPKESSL
T3 sequence (P50750 whole entry): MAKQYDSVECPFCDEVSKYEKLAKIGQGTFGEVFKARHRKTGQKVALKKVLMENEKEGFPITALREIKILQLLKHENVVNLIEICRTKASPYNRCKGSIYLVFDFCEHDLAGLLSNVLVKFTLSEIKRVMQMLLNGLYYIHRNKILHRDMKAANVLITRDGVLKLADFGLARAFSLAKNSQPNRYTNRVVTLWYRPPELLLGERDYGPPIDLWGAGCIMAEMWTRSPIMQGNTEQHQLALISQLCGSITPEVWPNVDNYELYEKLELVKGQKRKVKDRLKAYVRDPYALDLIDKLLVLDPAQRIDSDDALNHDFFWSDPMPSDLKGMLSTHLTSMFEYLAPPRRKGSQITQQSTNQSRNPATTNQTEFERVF
T1 sequence (P00533 with tags, fused parts or gaps DEL752-759): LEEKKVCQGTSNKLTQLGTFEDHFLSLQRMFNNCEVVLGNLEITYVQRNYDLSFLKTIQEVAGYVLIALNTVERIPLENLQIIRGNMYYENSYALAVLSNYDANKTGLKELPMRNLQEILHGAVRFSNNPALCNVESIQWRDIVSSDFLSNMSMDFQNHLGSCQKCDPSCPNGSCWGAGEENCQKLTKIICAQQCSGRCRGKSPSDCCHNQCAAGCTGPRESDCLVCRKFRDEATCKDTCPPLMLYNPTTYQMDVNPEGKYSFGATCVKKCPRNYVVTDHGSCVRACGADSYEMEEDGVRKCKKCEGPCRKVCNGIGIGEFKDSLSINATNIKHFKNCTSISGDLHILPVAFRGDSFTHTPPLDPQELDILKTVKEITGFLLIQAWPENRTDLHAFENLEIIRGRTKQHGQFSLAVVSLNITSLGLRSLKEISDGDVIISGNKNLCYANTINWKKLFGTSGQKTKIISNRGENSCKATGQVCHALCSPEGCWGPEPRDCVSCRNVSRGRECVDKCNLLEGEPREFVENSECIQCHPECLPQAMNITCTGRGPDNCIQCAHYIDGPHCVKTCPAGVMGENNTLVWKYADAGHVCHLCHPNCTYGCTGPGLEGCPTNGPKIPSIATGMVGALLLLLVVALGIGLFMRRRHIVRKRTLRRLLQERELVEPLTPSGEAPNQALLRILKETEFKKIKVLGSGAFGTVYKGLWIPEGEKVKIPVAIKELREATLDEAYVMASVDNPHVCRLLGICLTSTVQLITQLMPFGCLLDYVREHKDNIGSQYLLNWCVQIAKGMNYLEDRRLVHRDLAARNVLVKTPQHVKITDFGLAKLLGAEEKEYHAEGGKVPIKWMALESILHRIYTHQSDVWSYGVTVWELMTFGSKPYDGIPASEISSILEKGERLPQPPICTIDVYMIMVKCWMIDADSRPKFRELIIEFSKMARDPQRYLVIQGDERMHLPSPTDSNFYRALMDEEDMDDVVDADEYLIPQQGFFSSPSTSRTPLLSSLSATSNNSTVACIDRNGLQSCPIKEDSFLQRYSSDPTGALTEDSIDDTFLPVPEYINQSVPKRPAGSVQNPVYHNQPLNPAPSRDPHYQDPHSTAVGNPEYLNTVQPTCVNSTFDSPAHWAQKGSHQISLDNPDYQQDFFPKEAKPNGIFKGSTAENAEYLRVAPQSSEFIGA

| remaining binding at 10 µM (KinomeScan kinase panel [6]; TAOK3, 10 µM) | Compound | score (%) (KinomeScan kinase panel [1]) | remaining binding at 10 µM (KinomeScan kinase panel [2]) | remaining binding at 10 µM (KinomeScan kinase panel [3]) | score (%) (KinomeScan kinase panel [4]) | remaining binding at 10 µM (KinomeScan kinase panel [5]) | remaining binding at 10 µM (KinomeScan kinase panel [6]; kinase TAOK3, 10 µM) | score (%) (KinomeScan kinase panel [1]; EGFR(S752-I759del), 10 µM) |
| --- | --- | --- | --- | --- | --- | --- | --- | --- |
| – | CCN1CCN(Cc2ccc(NC(=O)c3ccc(C)c(NC(=O)c4cncc(-c5cccs5)c4)c3)cc2C(F)(F)F)CC1 [ALW-II-41-27] | 3% | > 30% | > 30% | 21% | > 30% | 2.8% | – |
| 0.1% | CCN1CCN(Cc2ccc(NC(=O)c3ccc(C)c(/C=C/c4cnc5[nH]ccc5c4Cl)c3)cc2C(F)(F)F)CC1 [HG-6-63-01, (E)-3-(2-(4-chloro-1H-pyrrolo[2,3-b]pyridin-5-yl)vinyl)-N-(4-((4-ethylpiperazin-1-yl)methyl)-3-(trifluoromethyl)phenyl)-4-methylbenzamide] | – | > 30% | > 30% | 26% | 28% | – | 0% |
| – | CCN1CCN(Cc2ccc(NC(=O)c3ccc(C)c(C#Cc4cccnc4)c3)cc2C(F)(F)F)CC1 [XMD15-44] | – | > 30% | > 30% | 23% | 41% | 0% | 0.9% |
